The source of these data is patent US9737525B2, “Small molecule activators of NRF2 pathway” (The General Hospital Corporation, priority 2013, dated 2017).

Test [1] relates to mutant HTT exon 1 fragment. The experiment in a line: Mutant HTT exon 1 levels in R6/2 mice (HTRF). As to conditions: 50 mg/kG daily for 3 weeks. It counts as in vivo, mouse. On the procedure:
In effects of brain-permeable MIND4 on clearance misfloded mutant HTT fragments have been tested in HD mouse model R6/2, expressing mutant HTT exon 1 fragment. Symptomatic HD mice (5 week old) have been treated with MIND4 at 50 mg/kG daily dose for 3 weeks. Treatment effects on levels of mutant exon 1 HTT have been measured by a highly sensitive HTRF method (FIG. 17C) as described (Mosckovitch-Lopatin, 2010; Chopra, 2012).

In a further test the test system is primary astrocytes. The experiment in a line: IL-6 release from primary astrocytes of wild type and YAC128 mice (ELISA). It counts as cell-based, mouse. As to conditions: CSE-stimulated wild type and YAC128 astrocytes. On the procedure:
Whole brains were obtained from post-natal 1 to 3 day old wild type and YAC128 mouse pups on the FVB/N strain background and placed in Hanks Balanced Salt Solution (HBSS; Invitrogen) on ice. Meninges were removed and the remaining brain tissue was placed into growth medium (DMEM [Invitrogen], 10% FBS [PAA], 1% L-glutamine [Invitrogen], 1% penicillin/streptomycin [Invitrogen]), and homogenized using a 5 ml pipette. Cells of each brain were pelleted, re-suspended in growth medium and transferred into a T150 flask, cultured at 37° C. with 5% CO2. Growth medium was replaced after 24 hr and then every 7 days. After 18 to 21 days in culture, loosely attached microglia were harvested and seeded at 1.4×10^5 cells/ml with pre-incubated conditioned media into 96-well PRIMARIA™ tissue culture plates (BD Falcon). Adherent astrocytes were plated at 1.4×10^5 cells/ml in 10% FBS media for 24 hr in 96-well PRIMARIA™ tissue culture plates. After the initial isolation microglia and astrocytes were seeded at a density of 1.4×10^5 cells/ml into 96-well PRIMARIA™ tissue culture plates. […] Cells were lysed and total protein levels were determined using the microBCA kit (Thermo Scientific). Supernatants were analyzed using mouse IL-6 ELISA (e-Biocience) and IL-6 levels were normalized to total protein levels.

In test [2] the test system is primary neurons from HD140CAG mice. The experiment in a line: ROS detection assay in primary neurons. It counts as cell-based, mouse. Conditions: 0.1 μM and 0.25 μM, 4 days. On the procedure: Elevated levels of reactive oxygen species (ROS) have been implicated in normal brain aging and in the pathogenesis of numerous neurodegenerative diseases, including HD. The neuroprotective properties of NRF2 activation have been reported to boost antioxidant defenses in astrocytes, but in this study it was determined whether NRF2 induction mediates protective antioxidant activity in mutant Htt expressing primary neurons. It was determined whether NRF2 activation could reduce mHtt associated ROS in primary neurons isolated from embryonic brains (E15-E17) of HD140CAG mice, which display strikingly elevated ROS levels compared to cells derived from wild type mice. HD and wild type neurons were treated with MIND4-17 at 0.1 μM and 0.25 μM doses for 4 days, and ROS were measured.
ROS detection in primary neurons was performed as previously described by [Valencia, 2013]. Briefly, neurons were plated on glass coverslips pretreated with poly-L-lysine for 24 hours. At 4 DIV wild type and HDQ140 neurons were treated with compound MIND4-17 at 4 DIV, then ROS were measured in live cells at 8 DIV. Prior to ROS measurements, neurons were loaded with […] of the non-fluorescent ROS-detector carboxy-DCFDA-AM (Invitrogen) for 15 min at 37° C. […] Images were acquired through a 60× oil immersion Nikon Apo objective DIC H (NA 1/4 1.4) and quantified using ImageJ software (NIH).

The test system of another test is primary human monocytes. The experiment in a line: Cytokine production by primary monocytes from HD patients and controls. It counts as cell-based. Details: Levels of IL-1, IL-6, IL-8 and TNFα: dose or concentration left out as unconfirmed. The protocol:
Blood samples were obtained from control subjects and genetically-diagnosed, symptomatic HD patients. Patients were classed as having early or moderate-stage disease using the total functional capacity (TFC) scale (13-7, early; 6-3, moderate) [Marder, 2000]. Subjects with inflammatory or infective conditions were excluded. Cells were isolated from whole blood, as previously described [Björkqvist, 2008]. In brief, 50 ml whole blood was collected in heparin (CP Pharmaceuticals) and leukocytes were isolated by density gradient centrifugation. Monocytes were sorted via magnetic cell separation columns using anti-CD14 microbeads (Miltenyi Biotec). Monocytes were seeded at 1×10^5 cells per well in 96-well PRIMARIA™ tissue culture plates (BD Falcon) with R10 media (RPMI culture medium supplemented with 10% FCS, 2 mM L-glutamine, 50 U/ml penicillin and […] streptomycin (Invitrogen)). […] Supernatants were analyzed using the human pro-inflammatory II (4-plex) MSD assay measuring IL-1b, IL-6, IL-8 and TNFα. […] Cell death was measured using a LDH assay (CytoTox-Fluor™ Cytotoxicity Assay from Promega). Normalized cytokine levels have been analyzed on the logarithmic scale due to their skewed distribution. […] Contrasts of interest were then calculated using linear combinations of parameter estimates.

The structures appear in SMILES notation.

On to `O=[N+]([O-])c1ccc(Sc2nnc(COc3ccccc3)n2-c2ccccc2)c2ncccc12` [MIND4, 5-nitro-8-{[5-(phenoxymethyl)-4-phenyl-4H-1,2,4-triazol-3-yl]thio}quinoline], for which the “Mutant HTT exon 1 fragments in cortex” value in test [1] is “Significant reduction of mutant HTT exon I fragments”.
As for `O=[N+]([O-])c1ccc(Sc2nnc(COc3ccccc3)n2-c2ccccc2)nc1` [MIND4-17], the IL-6 release entry in the test with primary astrocytes is given as “dose-response reduction of IL-6 release”. Further, in test [2], the “Basal ROS levels in wild type neurons” value is reported as “No effects on basal ROS levels were detected” and the “ROS levels in HD neurons” value was “significant reduction of ROS”. Besides, the “Levels of IL-1, IL-6, IL-8 and TNFα” value with primary human monocytes (HD patient cells) is given as “significant decrease in the levels of all four cytokines”. For the same compound, the “IL-1, IL-6, IL-8 and TNFα production” value in the test with primary human monocytes (monocytes from HD patients and normal subjects, LPS and IFN-g stimulation, different doses) is “reduced IL-1, IL-6, IL-8, and TNFα production”.
